Results reported in US11774442B2, “Molecule sensor systems” (priority 2016, dated 2023).

Legend:
[1] = tested on: PcaV; assay: PcaV synthetic promoter/operator GFP reporter in E. coli; type: cell-based, Streptomyces coelicolor; settings: E. coli harboring PcaV plasmid, grown in supplemented medium
Text: As an example, Streptomyces coelicolor harbors an aTF, PcaV (SC06704), a member of the MarR family, which relieves repression on its operator in the presence of 3,4-dihydroxybenzoic acid. When the intergenic region between PcaV and Pcal was cloned into position to promote the expression of GFP on a plasmid which can be maintained in E. coli, no GFP expression was observed even though no known protein was present which could bind the operator site. […] Upon the introduction of the PcaV protein under a constitutive promoter, the GFP expression was suppressed. […] See FIG. 1, FIG. 2, FIG. 3, FIG. 21.

[2] = tested on: FapR; assay: FapR GFP reporter in E coli; type: cell-based, Staphylococcus aureus; settings: increasing concentrations
Text: (§1) Staphylococcus aureus FapR responds to intracellular levels of malonyl-CoA. Cerulenin is an inhibitor of fatty acid biosynthesis and is known to increase the intracellular pool of malonyl-CoA at subtoxic concentrations.

[3] = tested on: E coli; assay: Toxicity in FapR chassis dose response (OD600 and fluorescence channels); type: cell-based; settings: highest concentration
Text: as §1

[4] = target: T1, TtgR (Pseudomonas putida, UniProt Q88N29); assay: TtgR-GFP sensor-reporter system in E. coli, response to naringenin; type: cell-based; settings: TtgR-binding synthetic operator promoter
T1 construct: Wild type of TtgR; expressed in transfected cells; host or cells: E. coli
T1 sequence (Q88N29 whole entry): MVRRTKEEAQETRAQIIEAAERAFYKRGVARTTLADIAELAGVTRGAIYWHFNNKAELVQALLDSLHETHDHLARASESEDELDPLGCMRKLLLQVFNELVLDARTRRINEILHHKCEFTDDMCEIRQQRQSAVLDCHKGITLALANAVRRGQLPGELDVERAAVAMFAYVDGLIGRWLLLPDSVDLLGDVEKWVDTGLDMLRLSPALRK
Text: TtgR regulates the TtgABC efflux pump in Pseudomonas putida, and responds to antibiotics such as chloramphenicol (Teran, et al) as well as the flavanones such as naringenin (Raman, et al).
See FIG. 8, FIG. 9, FIG. 10, FIG. 11, FIG. 13.

[5] = tested on: FadR; type: cell-based, Vibrio cholerae; settings: E coli; increased levels

## O=C(O)c1ccc(O)c(O)c1 [3,4-dihydroxybenzoic acid]
[1]
  GFP expression: expression of GFP was observed

## C/C=C/C/C=C/CCC(=O)[C@H]1O[C@H]1C(N)=O [cerulenin]
[2]
  GFP reporter expression: increased expression of a GFP reporter
[3]
  toxicity: toxicity at highest concentration

## O=C1C[C@@H](c2ccc(O)cc2)Oc2cc(O)cc(O)c21 [naringenin]
[4]
  GFP expression: drive GFP expression

## CCCCCCCC/C=C\CCCCCCCC(=O)O [oleic acid]
[5]
  GFP reporter expression: driving expression of a GFP reporter
